Test results from patent publication US10093713B2, “GIP-GLP-1 dual agonist compounds and methods” (priority 2013, dated 2018).
Where two headings read alike, the source gives them in different places. *1 amine or outer side, *2 acyl side, *3 side chain or, on linkers, in order; H or OH if unused. Where a SMILES comes first, the peptide text is derived from it. Side-chain parts run from the residue outwards. [ ]: non-standard residue; d: D form. The star is where a group is joined. C20 diacid = O=C(O)CCCCCCCCCCCCCCCCCCC(=O)*; γGlu = O=C(O)[C@H](CCC(=O)[*:2])N[*:1]; AEEA = NCCOCCOCC(=O)O; Aib = CC(C)(N)C(=O)O

Tests used:
[1] = Pharmacokinetics of selected compounds in mice; assay type: in vivo, C57BL/6J mice; conditions: male, C57BL/6J, mouse, plasma; for bioavailability: subcutaneous, AUCinf (s.c.)/AUCinf (i.v.)x100, values marked * capped to 100%
Protocol: Pharmacokinetics of Selected Compounds in Mice
C57BL/6J mice (males with a body weight of approximately 25 g) were given either a single subcutaneous (s.c.) bolus or a single intravenous (i.v.) bolus of each peptide to be tested.
Following s.c. administration of the selected compounds (50, 100 or 200 nmol/kg), blood samples were drawn at 8 (eight) timepoints up to 72 hours post-dose. Following i.v. administration of the selected compounds (50, 100 or 200 nmol/kg), blood samples were drawn at 8 (eight) timepoints up to 48 hours post-dose. Blood samples were drawn by sublingual bleeding. The dosing vehicle was a phosphate buffer containing mannitol (pH 7.5).
At each sampling time point, samples from two mice were drawn, i.e. 16 mice were included for each compound and each administration route. The mice were euthanized immediately after blood sampling by cervical dislocation. Plasma samples were analyzed after solid phase extraction (SPE) or protein precipitation followed by liquid chromatography mass spectrometry (LC-MS/MS). Mean plasma concentrations were used for calculation of the pharmacokinetic parameters using the non-compartmental approach in Phoenix WinNonlin 6.3. Plasma terminal elimination half-life (T½) was determined as […] where λz is the magnitude of the slope of the log linear regression of the log concentration versus time profile during the terminal phase. Bioavailability was determined as AUCinf (s.c.)/AUCinf (i.v.)×100, where AUCinf is the area under the plasma concentration−time curve extrapolated to infinity (AUCinf=AUClast+Clast/λz, where Clast is the last observed plasma concentration). Tmax is the post-dose time where the maximal plasma concentration was observed.

human GLP-1 R = target: T1, human GLP-1 R (Homo sapiens, UniProt P43220); experiment: Human GLP-1 receptor (GLP-1 R) activity assay, cAMP induction (AlphaScreen) in HEK293 cells; assay type: cell-based
T1 construct: expressed in transfected cells
T1 sequence (P43220 24-463): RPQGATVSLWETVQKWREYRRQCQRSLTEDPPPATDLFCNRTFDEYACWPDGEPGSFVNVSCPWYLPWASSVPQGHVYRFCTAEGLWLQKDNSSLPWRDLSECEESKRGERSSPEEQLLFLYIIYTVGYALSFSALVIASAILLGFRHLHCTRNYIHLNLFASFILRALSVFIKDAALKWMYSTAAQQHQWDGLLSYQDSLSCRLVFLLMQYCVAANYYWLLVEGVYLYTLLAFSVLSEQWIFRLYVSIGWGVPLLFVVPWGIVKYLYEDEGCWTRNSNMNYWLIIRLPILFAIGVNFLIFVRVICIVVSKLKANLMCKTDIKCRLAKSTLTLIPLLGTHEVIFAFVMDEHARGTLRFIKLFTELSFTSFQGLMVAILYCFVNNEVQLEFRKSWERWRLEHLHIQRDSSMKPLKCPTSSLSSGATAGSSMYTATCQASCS
How it was run: (§1)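 Stable HEK293 clones expressing human GIP R or GLP-1 R, seeded 1 day before; cells washed in Tyrode's buffer (10 mM HEPES, pH 7.4), stimulated, then lysed. cAMP measured by AlphaScreen bead competition (1 h, room temperature, dark). EC50 = concentration giving half-maximal cAMP elevation, from curves of absolute cAMP (nM) vs log concentration.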

human GIP R = target: T2, human GIP R (Homo sapiens, UniProt P48546); experiment: Human GIP receptor (GIP R) activity assay, cAMP induction (AlphaScreen) in HEK293 cells; assay type: cell-based; conditions: read-out: hGIP-R cAMP EC50 average value
T2 construct: expressed in transfected cells
T2 sequence (P48546 22-466): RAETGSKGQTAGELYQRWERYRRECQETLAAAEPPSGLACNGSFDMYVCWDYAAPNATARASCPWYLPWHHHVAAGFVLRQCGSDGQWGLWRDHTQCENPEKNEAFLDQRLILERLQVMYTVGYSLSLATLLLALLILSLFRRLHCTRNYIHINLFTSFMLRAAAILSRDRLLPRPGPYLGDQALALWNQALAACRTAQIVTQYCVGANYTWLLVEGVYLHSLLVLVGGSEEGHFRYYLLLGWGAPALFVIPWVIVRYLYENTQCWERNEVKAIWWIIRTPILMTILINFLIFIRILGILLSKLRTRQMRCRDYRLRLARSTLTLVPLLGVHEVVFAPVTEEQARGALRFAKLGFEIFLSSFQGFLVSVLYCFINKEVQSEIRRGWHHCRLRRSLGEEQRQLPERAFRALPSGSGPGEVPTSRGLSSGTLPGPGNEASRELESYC
How it was run: as §1

[2] = target: T3, human GIP receptor (human) (UniProt P48546); experiment: cell-based or functional assay
T3 sequence: T2 sequence (P48546 22-466)

[3] = iv, single i.v. bolus, read-out: T½ terminal elimination half-life, i.v. (converted)
[4] = sc, single s.c. bolus, read-out: T½ terminal elimination half-life, s.c. (converted)
[5] = Table 2, HEK293 cells expressing human GLP-1 R, read-out: hGLP1-R cAMP EC50 average value
[6] = Table 3, most comprehensive data, read-out: hGLP-1-R cAMP EC50 average value
[7] = Table 2, HEK293 cells expressing human GIP R
[8] = Table 3, most comprehensive data

| EC50, hGIP-R cAMP [2] | Compound | half-life [1, 3] | bioavailability [1] | Tmax ([1]; sc, single s.c. bolus) | half-life [1, 4] | EC50 (human GLP-1 R; [5]) | EC50 (human GLP-1 R; [6]) | EC50 (human GIP R; [7]) | EC50 (human GIP R; [8]) |
| --- | --- | --- | --- | --- | --- | --- | --- | --- | --- |
| – | CC[C@H](C)[C@H](NC(=O)[C@H](CO)NC(=O)[C@H](Cc1ccc(O)cc1)NC(=O)[C@H](CC(=O)O)NC(=O)[C@H](CO)NC(=O)[C@@H](NC(=O)[C@H](Cc1ccccc1)NC(=O)[C@@H](NC(=O)CNC(=O)[C@H](CCC(=O)O)NC(=O)C(C)(C)NC(=O)[C@@H](N)Cc1ccc(O)cc1)[C@@H](C)O)[C@@H](C)O)C(=O)N[C@@H](C)C(=O)N[C@@H](CC(C)C)C(=O)N[C@@H](CCC(=O)O)C(=O)N[C@@H](CCCCN)C(=O)N[C@@H](CCCCNC(=O)COCCOCCNC(=O)COCCOCCNC(=O)CC[C@H](NC(=O)CCCCCCCCCCCCCCCCCCC(=O)O)C(=O)O)C(=O)N[C@@H](C)C(=O)N[C@@H](CCC(N)=O)C(=O)N[C@@H](CCCNC(=N)N)C(=O)N[C@@H](C)C(=O)N[C@@H](Cc1ccccc1)C(=O)N[C@H](C(=O)N[C@@H](CCC(=O)O)C(=O)N[C@@H](Cc1c[nH]c2ccccc12)C(=O)N[C@@H](CC(C)C)C(=O)N[C@@H](CC(C)C)C(=O)N[C@@H](C)C(=O)N[C@@H](CCC(N)=O)C(=O)NCC(=O)N1CCC[C@H]1C(=O)N[C@@H](CO)C(=O)N[C@@H](CO)C(=O)NCC(=O)N[C@@H](C)C(=O)N1CCC[C@H]1C(=O)N1CCC[C@H]1C(=O)N1CCC[C@H]1C(=O)N[C@@H](CO)C(N)=O)C(C)C [Compound 31] (H-Y[Aib]EGTFTSDYSIALEKK([AEEA-AEEA-γGlu-C20 diacid])AQRAFVEWLLAQGPSSGAPPPS-NH2) | 11.7 h | 88% | 8 h | 15.1 h | 0.016 nM | 0.017 nM | 0.007 nM | 0.008 nM |
| – | CC[C@H](C)[C@H](NC(=O)[C@H](CO)NC(=O)[C@H](Cc1ccc(O)cc1)NC(=O)[C@H](CC(=O)O)NC(=O)[C@H](CO)NC(=O)[C@@H](NC(=O)[C@H](Cc1ccccc1)NC(=O)[C@@H](NC(=O)CNC(=O)[C@H](CCC(=O)O)NC(=O)[C@@H](C)NC(=O)[C@@H](N)Cc1ccc(O)cc1)[C@@H](C)O)[C@@H](C)O)C(=O)N[C@@H](C)C(=O)N[C@@H](CC(C)C)C(=O)N[C@@H](CCC(=O)O)C(=O)N[C@@H](CCCCN)C(=O)N[C@@H](CCCCNC(=O)COCCOCCNC(=O)COCCOCCNC(=O)CC[C@H](NC(=O)CCCCCCCCCCCCCCCCCCC(=O)O)C(=O)O)C(=O)N[C@@H](C)C(=O)N[C@@H](CCC(N)=O)C(=O)N[C@@H](CCCNC(=N)N)C(=O)N[C@@H](C)C(=O)N[C@@H](Cc1ccccc1)C(=O)N[C@H](C(=O)N[C@@H](CCC(=O)O)C(=O)N[C@@H](Cc1c[nH]c2ccccc12)C(=O)N[C@@H](CC(C)C)C(=O)N[C@@H](CC(C)C)C(=O)N[C@@H](C)C(=O)N[C@@H](CCC(N)=O)C(=O)NCC(=O)N1CCC[C@H]1C(=O)N[C@@H](CO)C(=O)N[C@@H](CO)C(=O)NCC(=O)N[C@@H](C)C(=O)N1CCC[C@H]1C(=O)N1CCC[C@H]1C(=O)N1CCC[C@H]1C(=O)N[C@@H](CO)C(N)=O)C(C)C [Compound 32] (H-Y[dA]EGTFTSDYSIALEKK([AEEA-AEEA-γGlu-C20 diacid])AQRAFVEWLLAQGPSSGAPPPS-NH2) | 17.4 h | 100% | 8 h | 11.8 h | 0.04 nM | 0.056 nM | 0.016 nM | 0.018 nM |
| – | CC[C@H](C)[C@H](NC(=O)[C@H](CO)NC(=O)[C@H](CC(C)C)NC(=O)[C@H](CC(=O)O)NC(=O)[C@H](CO)NC(=O)[C@@H](NC(=O)[C@H](Cc1ccccc1)NC(=O)[C@@H](NC(=O)CNC(=O)[C@H](CCC(=O)O)NC(=O)C(C)(C)NC(=O)[C@@H](N)Cc1ccc(O)cc1)[C@@H](C)O)[C@@H](C)O)C(=O)N[C@@H](C)C(=O)N[C@@H](CC(C)C)C(=O)N[C@@H](CCC(=O)O)C(=O)N[C@@H](CCCCN)C(=O)N[C@@H](CCCCNC(=O)COCCOCCNC(=O)COCCOCCNC(=O)CC[C@H](NC(=O)CCCCCCCCCCCCCCCCCCC(=O)O)C(=O)O)C(=O)N[C@@H](C)C(=O)N[C@@H](CCC(N)=O)C(=O)N[C@@H](CCCNC(=N)N)C(=O)N[C@@H](C)C(=O)N[C@@H](Cc1ccccc1)C(=O)N[C@H](C(=O)N[C@@H](CCC(=O)O)C(=O)N[C@@H](Cc1c[nH]c2ccccc12)C(=O)N[C@@H](CC(C)C)C(=O)N[C@@H](CC(C)C)C(=O)N[C@@H](C)C(=O)N[C@@H](CCC(N)=O)C(=O)N[C@@H](CCCCN)C(=O)N1CCC[C@H]1C(=O)N[C@@H](CO)C(=O)N[C@@H](CO)C(=O)NCC(=O)N[C@@H](C)C(=O)N1CCC[C@H]1C(=O)N1CCC[C@H]1C(=O)N1CCC[C@H]1C(=O)N[C@@H](CO)C(N)=O)C(C)C [Compound 34] (H-Y[Aib]EGTFTSDLSIALEKK([AEEA-AEEA-γGlu-C20 diacid])AQRAFVEWLLAQKPSSGAPPPS-NH2) | 14.9 h | 79% | 8 h | 17.1 h | 0.015 nM | – | 0.012 nM | – |
| 0.003 nM | hGIP (from UniProt P09681 52-93) (ligand) | – | – | – | – | – | – | – | – |
| > 10 nM | hGLP-1 (from UniProt P01275 92-128) (ligand) | – | – | – | – | – | – | – | – |
